In data set [1] the test system is scopolamine-induced hypermotility. Nature of the data set: Antagonistic effect on scopolamine-induced hypermotility. It counts as in vivo, mice (Std-ddY strain). The conditions noted are these: Mus musculus, po, read-out: Inhibitory ratio (% antagonism of scopolamine-induced hypermotility). How it is done:
Antagonistic effect on scopolamine-induced hypermotility:
A test compound was orally administered to each mouse, and 90 minutes after the administration, each one test animal was placed within a test cage (25×35×30 cm). After 30 minutes, scopolamine hydrobromide (1 mg/kg) was intraperitoneally administered to the mice and then the motility was measured with Animex activity meter for 30 minutes. The effect of test compounds was expressed as % antagonism (complete antagonism to the motility level of non-dosed animals=100%).

In data set [2] the test system is scopolamine-induced deficit of spontaneous alternation behavior. Nature of the data set: Improving effect on scopolamine-induced deficit of spontaneous alternation behavior (T-maze). It counts as in vivo, mice (Std-ddY strain). The conditions noted are these: scopolamine hydrobromide 1 mg/kg, non-dosed mice=100%. The source says:
Improving effect on scopolamine-induced deficit of spontaneous alternation behavior:
A group of 15-25 male mice (Std-ddY strain, 22-28 g) was used for evaluating effect of the test compounds on scopolamine-induced deficit of spontaneous alternation in a T-maze, which is a known animal model of memory impairment due to hypofunction of the cholinergic nervous system. The T-maze used consists of a stem and two arms which are 25 cm long, 5 cm wide and 10 cm high. The first 10 cm of the stem and last 10 cm of each arm are divided by sliding doors into start and goal boxes.
A test compound and scopolamine hydrobromide (1 mg/kg) were intraperitoneally administered to each mouse, and after 30 minutes a test of spontaneous alternation task in the T-maze was continuously repeated for 8 trials. Commonly, naive mice alternate each (right and left) goal box in turn, but scopolamine-treated animals tend to enter the same goal box repeatedly. The effect of the test compounds was expressed as % improvement (complete improvement to the alternation level of non-dosed mice=100%).

The test system of data set [3] is sodium nitrite-induced anemic hypoxia. Nature of the data set: Protective effect on sodium nitrite-induced anemic hypoxia. To be noted: 10 mg/kg i.p., 2 hours before sodium nitrite 225 mg/kg i.p.; vs sodium nitrite alone. Format: in vivo, mice (Std-ddY strain). The source says: Protective effect on sodium nitrite-induced anemic hypoxia:
It is known that sodium nitrite (NaNO2) induces anemic hypoxia by converting hemoglobin to metohemoglobin, resulting in a severe impairment of brain function and ultimately in death. Based on the above knowledge, prolongation of survival time after sodium nitrite treatment was used as an index for antihypoxic effect of the test compounds.
A group of 20 male mice (Std-ddY strain, 25-30 g) was intraperitoneally given a test compound (10 mg/kg), and 2 hours after the treatment with the test compound, a lethal amount (225 mg/kg) of sodium nitrite was intraperitoneally administered, and then, the survival time of each mouse was measured. The effect of the test compounds was assessed by the prolongation rate (%) of survival time compared with that of the animals treated with sodium nitrite alone.

Data set [4] addresses serotonin (S1) receptor. As to the kind of experiment: Serotonin (S1) receptor binding assay, [3H] serotonin. To be noted: rat brain crude synaptosome fractions. Set-up: species or system rats. How it is done: (§1) Effect of binding to dopamine (D2), serotonin (S1, S2) and adrenaline (α1) receptor (in vitro receptor binding assay):
(§2) Dopamine (D2), serotonin (S1, S2) and adrenaline (α1) receptor binding assays were carried out according to the methods of I. Creese et al. [Eur. J. Pharmacol., 46, 377 (1977)], S. J. Peroutka et al. [Mol. Pharmacol., 16, 687 (1979)], J. E. Leysen et al. [Mol. Pharmacol., 21, 301 (1982)], and D. C. U'Prichard et al. [Mol. Pharmacol., 13, 454 (1977)], respectively.
(§3) Crude synaptosome fractions prepared from some brain regions in rats were used as the receptor sources, and [^3 H] spiperone (D2), [^3 H] serotonin (S1), [^3 H] ketanserin (S2) and [^3 H] WB-4101 (α1) were used as the labelled ligands. The binding assay was performed by incubating aliquots of synaptosome fraction in buffer solution (final volume 1 ml) containing the receptor source and the labelled ligand in the presence of a test compound having various concentration thereof for a fixed time. The assay was terminated by rapid filtration through Whatman GF/B glass fiber filters attached to a cell-harvester (Brandel) and radioactivity on the filters was counted with a scintillation counter. Specific binding was calculated as a difference between the amount of radioactivity in the assay group and that in the control group which was separately measured likewise in the presence of an excess amount of an unlabelled ligand [spiperone (D2), serotonin (S1), methysergide (S2) and prazosin (α1)] instead of […]. The IC50 value of the test compounds (i.e. the concentration causing 50% inhibition of the labelled ligand specific binding) was determined by probit analysis.

Data set [5] deals with brain serotonin metabolite, 5-hydroxyindole-3-acetic acid (5-HIAA). Nature of the data set: Increasing effect on concentration of brain serotonin metabolite (5-HIAA). Format: in vivo, mice (Std-ddY strain). The conditions noted are these: Mus musculus, 2 h, two hours after treatment, 5-HIAA level of non-dosed animals=100%. The source says: Increasing effect on concentration of brain serotonin metabolite:
A group of 5 male mice (Std-ddY strain, 25-30 g) was used for examining effect of the test compounds on concentration of a brain serotonin metabolite, 5-hydroxyindole-3-acetic acid (5-HIAA).
Mice were killed by decapitation two hours after the treatment with the test compounds. Brains were quickly taken out, homogenized in 1N formic acid-acetone solution, and centrifuged in a refrigerated ultracentrifuge. The supernatant was evaporated by blowing with N2 gas, and then, the residue was again dissolved in 0.01N acetic acid, and served for determining 5-HIAA concentration by high performance liquid chromatography with electrochemical detection. The effect of the test compounds on 5-HIAA concentration was shown as % of control (5-HIAA level of non-dosed animals=100%).

Data set [6] has as its target adrenaline (α1) receptor. Nature of the data set: Adrenaline (α1) receptor binding assay, [3H] WB-4101. Details: species or system rats. To be noted: rat brain crude synaptosome fractions. How it is done: as §1, §2, §3
Data set [7] has as its system cycloheximide-induced amnesia of passive avoidance response. As to the kind of experiment: Improving effect on cycloheximide-induced amnesia of passive avoidance response. The conditions noted are these: cycloheximide 60 mg/kg s.c., retention trial at 24 hours, non-dosed animals=100%. Format: in vivo, mice (Std-ddY strain). The source says: Improving effect on cycloheximide-induced amnesia of passive avoidance response:
Anti-amnesic effect of the test compounds was examined using mice given cycloheximide which is a known amnesia-inducing agent.
A group of 15-20 male mice (Std-ddY strain, 27-33 g) was subjected to training and retention trials for a passive avoidance task in a step-down apparatus (30×30×50 cm) with a grid floor and a wooden platform (4×4×4 cm) in a center of the floor. In the training trial, each mouse was first placed on the platform, and when the mouse stepped down on the grid floor, an electric shock (1 Hz, 0.5 sec, 60 VDC) was delivered to the feet for 15 seconds. Immediately after the training trial, cycloheximide (60 mg/kg, s.c.) and a test compound (i.p.) were administered. The retention trial was carried out 24 hours thereafter, and the time from placing again each mouse on the platform until stepping down on the grid floor (step-down latency) was measured. The step-down latency in the retention trial was markedly shortened by treatment of cycloheximide (amnesia). The effect of test compounds was assessed by % improvement (complete improvement to the latency level of non-dosed animals=100%).

Data set [8] addresses T1, dopamine (D2) receptor (Rattus norvegicus, UniProt P61169).
T1 construct: Crude synaptosome fractions prepared from some brain regions in rats were used as the receptor sources; from tissue
Nature of the data set: Dopamine (D2) receptor binding assay, [3H] spiperone. The conditions noted are these: rat brain crude synaptosome fractions. Details: species or system rats. As to the method:
as §1, §2, §3

For data set [9], the target named is T2, serotonin (S2) receptor (Rattus norvegicus, UniProt P14842).
T2 construct: Crude synaptosome fractions prepared from some brain regions in rats were used as the receptor sources; from tissue
T2 sequence (P14842 whole entry): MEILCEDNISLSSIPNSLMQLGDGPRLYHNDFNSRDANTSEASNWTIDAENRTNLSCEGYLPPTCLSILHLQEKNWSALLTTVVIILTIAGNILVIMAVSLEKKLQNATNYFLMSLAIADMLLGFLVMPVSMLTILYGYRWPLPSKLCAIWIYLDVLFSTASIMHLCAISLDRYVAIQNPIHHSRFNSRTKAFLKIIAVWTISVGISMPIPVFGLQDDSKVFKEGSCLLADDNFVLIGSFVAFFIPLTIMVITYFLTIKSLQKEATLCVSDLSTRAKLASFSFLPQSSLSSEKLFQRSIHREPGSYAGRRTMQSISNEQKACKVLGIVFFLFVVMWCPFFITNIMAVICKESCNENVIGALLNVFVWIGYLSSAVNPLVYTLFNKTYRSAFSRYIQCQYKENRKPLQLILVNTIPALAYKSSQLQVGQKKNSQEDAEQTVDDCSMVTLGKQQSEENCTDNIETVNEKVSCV
As to the kind of experiment: Serotonin (S2) receptor binding assay, [3H] ketanserin. Details: species or system rats. To be noted: rat brain crude synaptosome fractions. How it is done: as §1, §2, §3

Data set [10] deals with mice. As to the kind of experiment: Acute toxicity. Format: in vivo, mice (Std-ddY strain). To be noted: 200 mg/kg orally; 7 days observation; 5 male mice. How it is done: Experiment 8 Acute toxicity
A group of 5 male mice (Std-ddY strain, 25-30 g) was used. The test compound (200 mg/kg) was orally administered to the test animal in the form of a 0.5% tragacanth solution or suspension, and for 7 days after the administration of the test compound, the lethality of animals was observed.

T1 sequence (P61169 whole entry): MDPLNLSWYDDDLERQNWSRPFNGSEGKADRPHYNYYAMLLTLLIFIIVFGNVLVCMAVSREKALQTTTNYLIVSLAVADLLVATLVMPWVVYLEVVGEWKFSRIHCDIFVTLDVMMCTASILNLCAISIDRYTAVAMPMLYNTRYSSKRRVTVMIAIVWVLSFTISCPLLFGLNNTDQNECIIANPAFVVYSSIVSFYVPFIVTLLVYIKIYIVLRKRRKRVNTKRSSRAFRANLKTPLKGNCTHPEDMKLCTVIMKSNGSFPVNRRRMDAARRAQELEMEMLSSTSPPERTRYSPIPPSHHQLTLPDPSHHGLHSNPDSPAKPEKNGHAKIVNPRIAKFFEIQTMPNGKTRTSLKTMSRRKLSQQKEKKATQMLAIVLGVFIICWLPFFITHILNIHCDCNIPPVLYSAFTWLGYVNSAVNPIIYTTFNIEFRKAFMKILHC

In the case of `Fc1ccc(-c2nc(N3CCNCC3)nc3c2CCC3)cc1` [Ex. 1, 2-(1-piperazinyl)-4-(4-fluorophenyl)-6,7-dihydro-5H-cyclopentapyrimidine], the inhibition in vivo at 3 mg/kg in data set [1] stood at 60.7%. Also, the “Improvement of scopolamine-induced deficit of spontaneous alternation” value in data set [2] (0.02 mg/kg i.p.) amounted to 47.8%; in data set [2] (0.5 mg/kg i.p.), 51.9%. In addition, in [3], the “Prolongation rate of survival time” value stood at 36.7%. The IC50 (commonly the concentration needed to halve the response being measured) was determined as 0.75 µM in data set [4], 1.1 µM in data set [6], 0.92 µM in data set [8] and 0.029 µM in [9]. In data set [5], the response vs control in vivo at 100 mg/kg was 150%. The results for the “Improvement of cycloheximide-induced amnesia (step-down latency)” value in data set [7] (0.5 mg/kg i.p.) and in data set [7] (2.0 mg/kg i.p.) were 33.8% and 65.8%, respectively. The Lethality of animals result in data set [10] was “no animal was died”.

For the origin of these results see patent US5185338A, “Medicament for treating cerebral insufficiency diseases, novel 2-(1-piperazinyl)-4-phenylcycloalkanopyrimidine derivatives, and process for the production thereof” (Dainippon Pharmaceutical Co., Ltd., priority 1989, dated 1993).
